The results in this text go back to patent US7763627B2, “Tie-2 modulators and methods of use” (Exelixis, Inc., priority 2003, dated 2010).

The structures appear in SMILES notation. Bounds are passed on as bounds.

Sequence of Tie-2 (Q02763 23-1124): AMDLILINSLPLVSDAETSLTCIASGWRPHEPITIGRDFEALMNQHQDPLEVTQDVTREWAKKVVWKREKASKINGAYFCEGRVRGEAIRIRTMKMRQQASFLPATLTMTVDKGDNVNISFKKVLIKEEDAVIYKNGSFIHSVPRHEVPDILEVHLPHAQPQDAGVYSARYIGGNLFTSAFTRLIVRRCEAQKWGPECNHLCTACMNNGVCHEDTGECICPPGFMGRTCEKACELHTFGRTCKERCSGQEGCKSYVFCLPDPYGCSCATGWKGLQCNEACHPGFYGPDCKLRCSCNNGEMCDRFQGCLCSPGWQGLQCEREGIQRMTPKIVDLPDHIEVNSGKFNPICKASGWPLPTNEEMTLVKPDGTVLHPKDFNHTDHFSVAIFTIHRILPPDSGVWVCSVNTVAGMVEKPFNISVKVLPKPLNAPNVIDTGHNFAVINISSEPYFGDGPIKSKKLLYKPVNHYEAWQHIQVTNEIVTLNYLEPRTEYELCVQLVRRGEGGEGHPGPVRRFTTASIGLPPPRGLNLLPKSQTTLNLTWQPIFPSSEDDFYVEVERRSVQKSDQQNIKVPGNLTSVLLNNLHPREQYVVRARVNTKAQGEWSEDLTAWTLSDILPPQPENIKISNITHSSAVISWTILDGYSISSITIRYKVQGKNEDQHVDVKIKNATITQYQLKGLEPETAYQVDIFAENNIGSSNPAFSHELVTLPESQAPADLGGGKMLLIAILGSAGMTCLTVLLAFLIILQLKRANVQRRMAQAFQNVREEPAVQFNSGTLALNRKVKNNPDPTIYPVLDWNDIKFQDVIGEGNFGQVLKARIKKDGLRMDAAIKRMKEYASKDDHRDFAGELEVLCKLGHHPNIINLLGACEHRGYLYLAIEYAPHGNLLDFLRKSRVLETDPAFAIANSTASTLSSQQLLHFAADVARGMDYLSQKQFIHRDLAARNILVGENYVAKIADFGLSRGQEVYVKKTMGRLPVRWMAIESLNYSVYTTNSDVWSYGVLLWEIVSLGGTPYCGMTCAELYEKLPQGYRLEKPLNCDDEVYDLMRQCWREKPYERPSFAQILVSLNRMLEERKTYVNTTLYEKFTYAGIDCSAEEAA

The assay addresses Tie-2 (Homo sapiens, UniProt Q02763). Put plainly: Tie-2 tyrosine kinase inhibition (ATP consumption by luciferase/luciferin chemiluminescence or 33P-ATP incorporation into pEY substrate). The conditions noted are these: human enzyme Tie-2; inhibition given as class symbol. Type of assay: biochemical. The protocol: Tyrosine kinase activity is determined by 1) measurement of kinase-dependent ATP consumption by in the presence of a generic substrate such as polyglutamine, tyrosin (pEY), by luciferase/luciferin-mediated chemiluminescence or; 2) incorporation of radioactive phosphate derived from ^33P-ATP into a generic substrate which has been adsorbed onto the well surface of polystyrene microtiter plates. Phosphorylated substrate products are quantified by scintillation spectrometry.
Inhibition is indicated as IC50 with following key: A=IC50 less than 50 nM, B=IC50 greater than 50 nM, but less than or equal to 1000 nM, C=IC50 greater than 1000 nM, but less than 10,000 nM, and D=IC50 10,000 nM or greater. The abbreviation for human enzyme, Tie-2, is defined as tyrosine kinase with immunoglobulin and EGF repeats.
With `c1ccc2c(NCC3CCCCC3)nc(-c3ccncc3)nc2c1` [Compound 4, N-(cyclohexylmethyl)-2-pyridin-4-ylquinazolin-4-amine], the IC50 was 1 to 10 µM. Take `OC[C@H]1C[C@@H](Nc2nc(-c3ccccc3)nc3ccccc23)[C@H](O)[C@@H]1O` [Compound 30, (1S,2R,3R,5R)-3-(hydroxymethyl)-5-[(2-phenylquinazolin-4-yl)amino]cyclopentane-1,2-diol]: the IC50 was not below 10 µM. Turning to `O[C@@H]1Cc2ccccc2[C@@H]1Nc1nc(-c2ccncc2)nc2cc(C(F)(F)F)ccc12` [Compound 48, (1S,2R)-1-{[2-pyridin-4-yl-7-(trifluoromethyl)quinazolin-4-yl]amino}-2,3-dihydro-1H-inden-2-ol], the IC50 was 0.05 to 1 µM. As for `OCCN1CCN(Nc2nc(-c3ccncc3)nc3ccccc23)CC1` [Compound 66, 2-{-4-[(2-pyridin-4-ylquinazolin-4-yl)amino]piperazin-1-yl}ethanol], the half-maximal inhibitory concentration (IC50) was not below 10 µM. The same measure for `c1ccc2c(NCCN3CCCC3)nc(-c3ccncc3)nc2c1` [Compound 2, 2-pyridin-4-yl-N-(2-pyrrolidin-1-ylethyl)quinazolin-4-amine]: not below 10 µM.

Regarding `c1ccc2c(c1)CC[C@H](Nc1nc(-c3ccncc3)nc3ccccc13)C2` [Compound 15, 2-pyridin-4-yl-N-[(2S)-1,2,3,4-tetrahydronaphthalen-2-yl]quinazolin-4-amine], the IC50 was 1 to 10 µM.

The molecule `O[C@@H]1Cc2ccccc2[C@@H]1Nc1nc(-c2ccccn2)nc2ccccc12` [Compound 37, (1S,2R)-1-[(2-pyridin-2-ylquinazolin-4-yl)amino]-2,3-dihydro-1H-inden-2-ol] yielded an IC50 not below 10 µM. `c1ccc2c(NCCN3CCOCC3)nc(-c3ccncc3)nc2c1` [Compound 10, N-(2-morpholin-4-ylethyl)-2-pyridin-4-ylquinazolin-4-amine]: the IC50 is not below 10 µM. For `O[C@H]1Cc2ccccc2[C@H]1Nc1nc(-c2ccccc2)nc2ccccc12` [Compound 27, (1R,2S)-1-[(2-phenylquinazolin-4-yl)amino]-2,3-dihydro-1H-inden-2-ol], the concentration for half-maximal inhibition (IC50) was not below 10 µM. The same measure for `CN(C)CCNc1nc(-c2ccncc2)nc2ccccc12` [Compound 8, N,N-dimethyl-N′-(2-pyridin-4-ylquinazolin-4-yl)ethane-1,2-diamine]: not below 10 µM. Consider `COc1cc(OC)c(CNc2nc(-c3ccncc3)nc3ccccc23)c(OC)c1` [Compound 20, 2-pyridin-4-yl-N-{[2,4,6-tris(methyloxy)phenyl]methyl}quinazolin-4-amine], for which the IC50 was not below 10 µM. Molecule `c1ccc(Nc2ccc(Nc3nc(-c4ccncc4)nc4ccccc34)cc2)cc1` [Compound 23, N-phenyl-N′-(2-pyridin-4-ylquinazolin-4-yl)benzene-1,4-diamine] registered an IC50 not below 10 µM.

Take `CC(C)(C)OC(=O)N1CCN(c2nc(-c3ccncc3)nc3ccccc23)CC1` [Compound 14, 1,1-dimethylethyl 4-(2-pyridin-4-ylquinazolin-4-yl)piperazine-1-carboxylate]: the concentration for half-maximal inhibition (IC50) was not below 10 µM. In turn, `O[C@@H]1Cc2ccccc2[C@@H]1Nc1nc(-c2cccnc2)nc2ccccc12` [Compound 33, (1S,2R)-1-[(2-pyridin-3-ylquinazolin-4-yl)amino]-2,3-dihydro-1H-inden-2-ol] had an IC50 of 1 to 10 µM. In turn, `OC[C@@H](O)CNc1nc(-c2ccncc2)nc2ccccc12` [Compound 39, (2S)-3-[(2-pyridin-4-ylquinazolin-4-yl)amino]propane-1,2-diol] returned an IC50 not below 10 µM. Take `Oc1ccc(-c2nc(N[C@H]3c4ccccc4C[C@H]3O)c3ccccc3n2)cn1` [Compound 64, 5-(4-{[(1S,2R)-2-hydroxy-2,3-dihydro-1H-inden-1-yl]amino}quinazolin-2-yl)pyridin-2-ol]: the IC50 was not below 10 µM. In turn, `c1ccc2c(NCCN3CCNCC3)nc(-c3ccncc3)nc2c1` [Compound 32, N-(2-piperazin-1-ylethyl)-2-pyridin-4-ylquinazolin-4-amine] displayed an IC50 not below 10 µM. In the case of `Oc1cc2ccccc2cc1Nc1nc(-c2ccncc2)nc2ccccc12` [Compound 24, 3-[(2-pyridin-4-ylquinazolin-4-yl)amino]naphthalen-2-ol], the IC50 is 1 to 10 µM. For the molecule `c1ccc2c(NN3CCCCC3)nc(-c3ccncc3)nc2c1` [Compound 67, N-piperidin-1-yl-2-pyridin-4-ylquinazolin-4-amine], the IC50 was not below 10 µM. The molecule `O[C@H]1Cc2ccccc2[C@H]1Nc1nc(-c2ccccn2)nc2ccccc12` [Compound 38, (1R,2S)-1-[(2-pyridin-2-ylquinazolin-4-yl)amino]-2,3-dihydro-1H-inden-2-ol] yielded an IC50 not below 10 µM.

With `O[C@@H]1CCC[C@H]1Nc1nc(-c2cccnc2)nc2ccccc12` [Compound 35, (1R,2R)-2-[(2-pyridin-3-ylquinazolin-4-yl)amino]cyclopentanol], the IC50 is not below 10 µM.

Molecule `OC[C@H](Cc1ccccc1)Nc1nc(-c2ccncc2)nc2ccccc12` [Compound 61, (2S)-3-phenyl-2-[(2-pyridin-4-ylquinazolin-4-yl)amino]propan-1-ol] had an IC50 of 1 to 10 µM.

In turn, `O[C@@H]1Cc2ccccc2[C@@H]1Nc1ccnc(-c2ccncc2)n1` [Compound 57, (1S,2R)-1-[(2-pyridin-4-ylpyrimidin-4-yl)amino]-2,3-dihydro-1H-inden-2-ol] returned a half-inhibitory concentration (IC50) of 0.05 to 1 µM. With `O[C@@H]1CCCC[C@H]1Nc1nc(-c2ccccc2)nc2ccccc12` [Compound 29, (1R,2R)-2-[(2-phenylquinazolin-4-yl)amino]cyclohexanol] the figure was not below 10 µM; with `O[C@@H]1CCC[C@H]1Nc1nc(-c2ccccc2)nc2ccccc12` [Compound 28, (1R,2R)-2-[(2-phenylquinazolin-4-yl)amino]cyclopentanol], not below 10 µM; with `CC(C)(C)OC(=O)N1CCC(Nc2nc(-c3ccncc3)nc3ccccc23)CC1` [Compound 19, 1,1-dimethylethyl 4-[(2-pyridin-4-ylquinazolin-4-yl)amino]piperidine-1-carboxylate], 1 to 10 µM.

As for `c1ccc2c(NC3CCNCC3)nc(-c3ccncc3)nc2c1` [Compound 21, N-piperidin-4-yl-2-pyridin-4-ylquinazolin-4-amine], the IC50 is not below 10 µM.

In the case of `OCCCNc1nc(-c2ccncc2)nc2ccccc12` [Compound 6, 3-[(2-pyridin-4-ylquinazolin-4-yl)amino]propan-1-ol], the IC50 is not below 10 µM.

`c1ccc2c(N3CCNCC3)nc(-c3ccncc3)nc2c1` [Compound 13, 4-piperazin-1-yl-2-pyridin-4-ylquinazoline]: the IC50 was not below 10 µM. With `OCCNc1nc(-c2ccncc2)nc2ccccc12` [Compound 5, 2-[(2-pyridin-4-ylquinazolin-4-yl)amino]ethanol], the half-maximal inhibitory concentration (IC50) is not below 10 µM. Turning to `OC1CCCN(c2nc(-c3ccncc3)nc3ccccc23)C1` (stereo not drawn) [Compound 47, 1-(2-pyridin-4-ylquinazolin-4-yl)piperidin-3-ol], the IC50 was not below 10 µM.

`Nc1ccncc1-c1nc(N[C@H]2c3ccccc3C[C@H]2O)c2ccccc2n1` [Compound 59, (1S,2R)-1-{[2-(4-aminopyridin-3-yl)quinazolin-4-yl]amino}-2,3-dihydro-1H-inden-2-ol] showed a 50% inhibitory concentration (IC50) not below 10 µM. On to `CC(C)Oc1ccc(Nc2nc(-c3ccncc3)nc3ccccc23)cc1` [Compound 25, N-{4-[(1-methylethyl)oxy]phenyl}-2-pyridin-4-ylquinazolin-4-amine], for which the IC50 lay in the range of 1 to 10 µM.

By IC50 is commonly meant the point on the concentration scale where inhibition reaches its midpoint.
